Measured values: ChEMBL document CHEMBL6083271 (J Med Chem, 2024)
Values belong to the compound of their own block, whether it stands above or below them. Calls of active or inactive are those of the source. No cut-off for these calls is given here.

Legend:
RS4-11 [1] = assay: Antiproliferative activity against human RS4;11 cells harbouring p53 wild type assessed as inhibition of cell growth measured after 4 days by WST-8 assay; assay type: functional, cell-based; settings: RS4-11, 96 h
RS4-11 [2] = assay: Antiproliferative activity against human RS4;11 cells harbouring p53 mutant assessed as inhibition of cell growth measured after 4 days by WST-8 assay; assay type: functional, cell-based; settings: RS4-11, 96 h
RS4-11 [3] = assay: Antitumor activity against human RS4;11 cells xenografted in SCID mouse model assessed as tumor regression at 50 mg/kg, iv qd administered every other for 2 weeks and measured upto 30 days by caliper method relative to control; assay type: functional; settings: time <= 30 day
RS4-11 [4] = assay: Antiproliferative activity against human RS4;11 cells assessed as inhibition of cell growth measured after 4 days by WST-8 assay; assay type: functional, cell-based; settings: RS4-11, 96 h
MV4-11 [5] = assay: Antiproliferative activity against human MV4-11 cells assessed as inhibition of cell growth measured after 4 days by WST-8 assay; assay type: functional, cell-based; settings: MV4-11, 96 h
OCI-AML2 = assay: Antiproliferative activity against human OCI-AML2 cells assessed as inhibition of cell growth measured after 4 days by WST-8 assay; assay type: functional, cell-based; settings: OCI-AML2, 96 h
OCI-AML-3 = assay: Antiproliferative activity against human OCI-AML-3 cells assessed as inhibition of cell growth measured after 4 days by WST-8 assay; assay type: functional, cell-based; settings: OCI-AML-3, 96 h
OCI-AML-5 = assay: Antiproliferative activity against human OCI-AML5 cells assessed as inhibition of cell growth measured after 4 days by WST-8 assay; assay type: functional, cell-based; settings: OCI-AML-5, 96 h
MOLM-13 = assay: Antiproliferative activity against human MOLM-13 cells assessed as inhibition of cell growth measured after 4 days by WST-8 assay; assay type: functional, cell-based; settings: MOLM-13, 96 h
MOLM-14 = assay: Antiproliferative activity against human MOLM-14 cells assessed as inhibition of cell growth measured after 4 days by WST-8 assay; assay type: functional, cell-based; settings: MOLM-14, 96 h
ML-2 = assay: Antiproliferative activity against human ML-2 cells assessed as inhibition of cell growth measured after 4 days by WST-8 assay; assay type: functional, cell-based; settings: ML-2, 96 h
SIG-M5 = assay: Antiproliferative activity against human SIG-M5 cells assessed as inhibition of cell growth measured after 4 days by WST-8 assay; assay type: functional, cell-based; settings: SIG-M5, 96 h
RS4-11 [6] = assay: Upregulation of MDM2 mRNA level in human RS4;11 cells at 300 nM measured after 3 hrs by qRT-PCR analysis; assay type: functional, cell-based
RS4-11 [7] = assay: Upregulation of p21 mRNA level in human RS4;11 cells at 300 nM measured after 3 hrs by qRT-PCR analysis; assay type: functional, cell-based
RS4-11 [8] = assay: Upregulation of PUMA mRNA level in human RS4;11 cells at 300 nM measured after 3 hrs by qRT-PCR analysis; assay type: functional, cell-based
RS4-11 [9] = assay: Effect of p53 mRNA level in human RS4;11 cells at 300 nM by qRT-PCR analysis; assay type: functional, cell-based
MV4-11 [10] = assay: Upregulation of MDM2 mRNA level in human MV4-11 cells at 300 nM by qRT-PCR analysis; assay type: functional, cell-based
MV4-11 [11] = assay: Upregulation of p21 mRNA level in human MV4-11 cells at 300 nM by qRT-PCR analysis; assay type: functional, cell-based
MV4-11 [12] = assay: Upregulation of PUMA mRNA level in human MV4-11 cells at 300 nM by qRT-PCR analysis; assay type: functional, cell-based
RS4-11 [13] = assay: Antiproliferative activity against human RS4;11 cells assessed as inhibition of cell growth measured after 4 days in presence of lenalidomide by WST-8 assay; assay type: functional, cell-based; settings: time 4.0 day
MV4-11 [14] = assay: Antiproliferative activity against human MV4-11 cells assessed as inhibition of cell growth measured after 4 days in presence of lenalidomide by WST-8 assay; assay type: functional, cell-based; settings: time 4.0 day
RS4-11 [15] = assay: Upregulation of p53 level in human RS4;11 cells harbouring wild type p53 at 1 to 3 nM measured after 2 hrs by Western blot analysis; assay type: functional, cell-based; settings: dose 1-3 nM
MV4-11 [16] = assay: Upregulation of p53 level in human MV4-11 cells at 1 to 3 nM measured after 2 hrs by Western blot analysis; assay type: functional, cell-based; settings: dose 1-3 nM
RS4-11 [17] = assay: Downregulation of MDM2 level in human RS4;11 cells at 1 nM measured after 2 hrs by Western blot analysis; assay type: functional, cell-based
MV4-11 [18] = assay: Downregulation of MDM2 level in human MV4-11 cells at 3 to 30 nM measured after 2 hrs by Western blot analysis; assay type: functional, cell-based; settings: dose 3-30 nM
[19] = Upregulation of MDM2 mRNA level in human RS4;11 cells assessed as fold change at 10 nM measured after 3 hrs by qRT-PCR analysis; assay type: functional
[20] = Upregulation of p21 mRNA level in human RS4;11 cells assessed as fold change at 10 nM measured after 3 hrs by qRT-PCR analysis; assay type: functional
[21] = Upregulation of PUMA mRNA level in human RS4;11 cells assessed as fold change at 10 nM measured after 3 hrs by qRT-PCR analysis; assay type: functional
RS4-11 [22] = assay: Effect of p53 mRNA level in human RS4;11 cells at 10 nM by qRT-PCR analysis; assay type: functional, cell-based
[23] = Upregulation of p21 mRNA level in human MV4-11 cells assessed as fold increase at 30 nM by qRT-PCR analysis; assay type: functional
[24] = Upregulation of PUMA mRNA level in human MV4-11 cells assessed as fold increase at 30 nM by qRT-PCR analysis; assay type: functional
MV4-11 [25] = assay: Effect on p53 mRNA level in human MV4-11 cells at 30 nM by qRT-PCR analysis; assay type: functional, cell-based
[26] = Half life in mouse at 10 mg/kg, iv; assay type: ADME, organism-based; settings: in vivo
[27] = AUC (0 to t) in mouse at 10 mg/kg, iv; assay type: ADME, organism-based; settings: in vivo
[28] = Clearance in mouse at 10 mg/kg, iv; assay type: ADME, organism-based; settings: in vivo
[29] = Volume of distribution at steady state in mouse at 10 mg/kg, iv; assay type: ADME, organism-based; settings: in vivo, read-out: Vdss
[30] = Half life in rat at 5 mg/kg, iv; assay type: ADME, organism-based; settings: in vivo
[31] = AUC (0 to t) in rat at 5 mg/kg, iv; assay type: ADME, organism-based; settings: in vivo
[32] = Clearance in rat at 5 mg/kg, iv; assay type: ADME, organism-based; settings: in vivo
[33] = Volume of distribution at steady state in rat at 5 mg/kg, iv; assay type: ADME, organism-based; settings: in vivo, read-out: Vdss
[34] = Half life in dog at 2.5 mg/kg, iv; assay type: ADME, organism-based, Canis lupus familiaris; settings: in vivo
[35] = AUC (0 to t) in dog at 2.5 mg/kg, iv; assay type: ADME, organism-based, Canis lupus familiaris; settings: in vivo
[36] = Clearance in dog at 2.5 mg/kg, iv; assay type: ADME, organism-based, Canis lupus familiaris; settings: in vivo
[37] = Volume of distribution at steady state in dog at 2.5 mg/kg, iv; assay type: ADME, organism-based, Canis lupus familiaris; settings: in vivo, read-out: Vdss
RS4-11 [38] = assay: Antitumor activity against human RS4;11 cells xenografted in female NOD-SCID mouse model assessed as tumor regression at 25 mg/kg, iv administered every other day for 2 weeks by vernier method relative to control; assay type: functional
RS4-11 [39] = assay: Antitumor activity against human RS4;11 cells xenografted in female NOD-SCID mouse model assessed as reduction in tumor size at 25 mg/kg, iv administered every other day for 2 weeks by vernier method relative to control; assay type: functional; parameters: scale not given: the % may be the effect or the level left
RS4-11 [40] = assay: Antitumor activity against human RS4;11 cells xenografted in female NOD-SCID mouse model assessed as tumor regression at 25 mg/kg, iv measured upto 34 days by vernier method relative to control; assay type: functional; settings: time <= 34 day
[41] = Toxicity in female NOD-SCID mouse assessed as effect on body weight at 25 mg/kg, iv qd; assay type: organism-based; settings: in vivo
RS4-11 [42] = assay: Antitumor activity against human RS4;11 cells xenografted in female NOD-SCID mouse model assessed as median survival time at 25 mg/kg, iv qw (reference value: 47.5 days); assay type: functional
RS4-11 [43] = assay: Antitumor activity against human RS4;11 cells xenografted in female NOD-SCID mouse model assessed as median survival time at 50 mg/kg, iv qw (reference value: 47.5 days); assay type: functional
RS4-11 [44] = assay: Downregulation of MDM2 protein level in human RS4;11 cells at 3 nM measured after 2 hrs in presence of lenalidomide by Western blot analysis; assay type: functional, cell-based
MV4-11 [45] = assay: Downregulation of MDM2 protein level in human MV4-11 cells at 3 nM measured after 2 hrs in presence of lenalidomide by Western blot analysis; assay type: functional, cell-based
RS4-11 [46] = assay: Upregulation of p53 protein level in human RS4;11 cells at 3 nM measured after 2 hrs in presence of lenalidomide by Western blot analysis; assay type: functional, cell-based
MV4-11 [47] = assay: Upregulation of p53 protein level in human MV4-11 cells at 3 nM measured after 2 hrs in presence of lenalidomide by Western blot analysis; assay type: functional, cell-based

- IC50 (RS4-11 [1]): 4 nM
- IC50 (RS4-11 [2]): 50 nM
- IC50 (RS4-11 [4]): 3 nM
- IC50 (MV4-11 [5]): 14 nM
- IC50 (OCI-AML2): 113 nM
- IC50 (OCI-AML-3): 7.75 µM
- IC50 (OCI-AML-5): 148 nM
- IC50 (MOLM-13): 37 nM
- IC50 (MOLM-14): 76 nM
Structure (SMILES): O=C1CCC(N2Cc3c(C#CC4CCN(C(=O)c5ccc(NC(=O)[C@@H]6NC7(CCCCC7)[C@@]7(C(=O)Nc8cc(Cl)ccc87)[C@H]6c6cccc(Cl)c6F)cc5)CC4)cccc3C2=O)C(=O)N1 (some centres not stated)
- Activity (RS4-11 [3]): 100%
- IC50 (ML-2): 11 nM
- IC50 (SIG-M5): 103 nM

- IC50 (RS4-11 [4]): 179 nM
- IC50 (MV4-11 [5]): 93 nM
Structure (SMILES): O=C(N[C@H]1CC[C@H](C(=O)O)CC1)[C@@H]1NC2(CCCCC2)[C@@]2(C(=O)Nc3cc(Cl)ccc32)[C@H]1c1cccc(Cl)c1F
- Activity (RS4-11 [6]): Active; Least Effect
- Activity (RS4-11 [7]): Active; Least Effect
- Activity (RS4-11 [8]): Active; Least Effect
- Activity (RS4-11 [9]): inactive
- Activity (MV4-11 [10]): Active; Less Effective Than Md-265
- Activity (MV4-11 [11]): Active; Less Effective Than Md-265
- Activity (MV4-11 [12]): Active; Less Effective Than Md-265
- Activity (RS4-11 [13]): Active; Compound Showed Modest Inhibition Of Cell Growth
- Activity (MV4-11 [14]): Active; Compound Showed Minimal Effect

Structure (SMILES): O=C1CCC(N2Cc3c(C#CC4CCN(C(=O)[C@H]5CC[C@H](NC(=O)[C@@H]6NC7(CCCCC7)[C@@]7(C(=O)Nc8cc(Cl)ccc87)[C@H]6c6cccc(Cl)c6F)CC5)CC4)cccc3C2=O)C(=O)N1 (some centres not stated)
- IC50 (RS4-11 [4]): 0.7 nM
- IC50 (MV4-11 [5]): 2 nM
- Activity (RS4-11 [15]): Active
- Activity (MV4-11 [16]): Active
- Activity (RS4-11 [17]): Active
- Activity (MV4-11 [18]): Active
- fold change (FC) [19]: 8
- fold change (FC) [20]: 8
- fold change (FC) [21]: 8
- Activity (RS4-11 [22]): inactive
- fold change (FC) [23]: 10
- fold change (FC) [24]: 3
- Activity (MV4-11 [25]): inactive
- IC50 (OCI-AML2): 24 nM
- IC50 (OCI-AML-3): 0.212 µM
- IC50 (OCI-AML-5): 23 nM
- IC50 (MOLM-13): 5.7 nM
- IC50 (MOLM-14): 7.6 nM
- IC50 (ML-2): 1.2 nM
- IC50 (SIG-M5): 20 nM
- half-life [26]: 366 min
- AUC(0-t) [27]: 156 µg·h/mL
- clearance [28]: 1.1 mL/min/kg
- Vd [29]: 0.54 L/kg
- half-life [30]: 336 min
- AUC(0-t) [31]: 13000 ng·h/mL
- clearance [32]: 3.2 mL/min/kg
- Vd [33]: 0.15 L/kg
- half-life [34]: 378 min
- AUC(0-t) [35]: 5500 ng·h/mL
- clearance [36]: 7.4 mL/min/kg
- Vd [37]: 0.93 L/kg
- Activity (RS4-11 [38]): 100%
- Activity (RS4-11 [39]): >70%
- Activity (RS4-11 [40]): 100%
- Activity [41]: Non-toxic
- MST (RS4-11 [42]): 78.5 days
- MST (RS4-11 [43]): 72 days
- Activity (RS4-11 [44]): inactive
- Activity (MV4-11 [45]): inactive
- Activity (RS4-11 [46]): inactive
- Activity (MV4-11 [47]): inactive
- Activity (RS4-11 [13]): inactive
- Activity (MV4-11 [14]): inactive
